The text below walks through data of patent US20050239784A1 (priority 2002, published 2005).

Usually solubility stands for the dissolved amount per volume that the medium holds. A high value points to much dissolved substance.

Converted amounts (≈) assume the structure as drawn. Read-outs that look alike come from different tables or passages of the source.

Data set [1] concerns the target T1, AKT3 (Homo sapiens, UniProt Q9Y243). Nature of the data set: cell-based.
Target sequence in this assay (Q9Y243 whole entry): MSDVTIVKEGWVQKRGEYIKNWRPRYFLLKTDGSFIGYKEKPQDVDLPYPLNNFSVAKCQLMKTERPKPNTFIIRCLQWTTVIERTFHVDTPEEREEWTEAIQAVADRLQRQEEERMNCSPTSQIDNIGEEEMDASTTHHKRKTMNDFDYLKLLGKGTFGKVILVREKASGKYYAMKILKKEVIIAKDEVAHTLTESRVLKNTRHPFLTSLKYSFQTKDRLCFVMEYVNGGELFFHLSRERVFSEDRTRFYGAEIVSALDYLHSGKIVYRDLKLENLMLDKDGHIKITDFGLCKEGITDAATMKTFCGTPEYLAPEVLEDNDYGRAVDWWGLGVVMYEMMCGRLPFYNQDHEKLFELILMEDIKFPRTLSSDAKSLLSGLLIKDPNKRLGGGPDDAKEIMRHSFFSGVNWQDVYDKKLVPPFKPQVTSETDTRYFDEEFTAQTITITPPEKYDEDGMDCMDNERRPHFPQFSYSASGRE
The next data set addresses CDK4 (Homo sapiens, UniProt P11802). The experiment in a line: biochemical.
A further data set can be described thus: physchem. Particulars: pH 7.4, aqueous buffer, kinetic from dmso stock.
In data set [2] the target is T1, AKT3. Nature of the data set: biochemical.
Target sequence in this assay (Q9Y243 whole entry, species assumed): as the sequence (Q9Y243 whole entry) above
For a further data set, the system named is A2780 cells. The experiment in a line: Cytotox survival of A2780 cells after 3 days. The data set is classed as cell-based. Particulars: for IC50: Homo sapiens, A2780, 72 h. As for the experimental part:
In an alternative assay, the growth inhibitory effect of the compounds was tested on the ovarian carcinoma cell line A2780 using art known cytotoxicity assays such as LIVE/DEAD (Molecular Probes) MTT.

For another data set, the target named is T2, CDC25B (Homo sapiens, UniProt P30305).
T2 sequence (P30305 1-580): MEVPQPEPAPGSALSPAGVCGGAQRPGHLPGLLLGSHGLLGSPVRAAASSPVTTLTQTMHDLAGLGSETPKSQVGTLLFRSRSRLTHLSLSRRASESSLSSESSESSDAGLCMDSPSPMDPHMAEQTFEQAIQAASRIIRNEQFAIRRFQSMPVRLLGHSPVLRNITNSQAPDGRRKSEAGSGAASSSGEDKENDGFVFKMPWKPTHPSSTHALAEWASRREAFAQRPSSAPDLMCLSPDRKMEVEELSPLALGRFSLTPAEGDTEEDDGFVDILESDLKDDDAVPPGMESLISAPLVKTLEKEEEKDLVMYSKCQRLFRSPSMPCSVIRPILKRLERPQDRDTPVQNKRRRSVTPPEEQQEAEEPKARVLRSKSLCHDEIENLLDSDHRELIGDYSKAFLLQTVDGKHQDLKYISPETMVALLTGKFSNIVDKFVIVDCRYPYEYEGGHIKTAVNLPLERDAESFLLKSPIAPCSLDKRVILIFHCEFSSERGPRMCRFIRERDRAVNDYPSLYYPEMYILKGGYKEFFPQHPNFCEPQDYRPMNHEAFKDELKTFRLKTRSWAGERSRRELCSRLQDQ
The experiment in a line: biochemical.

[3] abbreviates: read-out: AKT cel (Ex. C.6): pIC50 values (converted).
[4] abbreviates: read-out: CDK4 SPA (Ex. C.1): pIC50 values (converted).
[5] abbreviates: read-out: AKT3 pep. (Ex. C.3): pIC50 values (converted).
Where [6] appears, read: read-out: Cytotox survival of A2780 cells after 3 days - pIC50 values, A2780 cells, 3 days (converted).
Setting [7] is: read-out: CDC25B WT (Ex. C.5): pIC50 values (converted).
The mark [8] stands for this setting: AKT cel (Ex. C.6): pIC50 values, MDA-MB 231 cells, phosphorylated MAPK read-out.
Where [9] appears, read: CDK4 SPA (Ex. C.1): pIC50 values.
[10] abbreviates: AKT3 pep. (Ex. C.3): pIC50 values.
[11] abbreviates: CDC25B WT (Ex. C.5): pIC50 values.
[12] abbreviates: A2780 cells, 3 days, read-out: Cytotox survival of A2780 cells after 3 days - pIC50 values (converted).

CDK4, sequence (P11802 whole entry, species assumed): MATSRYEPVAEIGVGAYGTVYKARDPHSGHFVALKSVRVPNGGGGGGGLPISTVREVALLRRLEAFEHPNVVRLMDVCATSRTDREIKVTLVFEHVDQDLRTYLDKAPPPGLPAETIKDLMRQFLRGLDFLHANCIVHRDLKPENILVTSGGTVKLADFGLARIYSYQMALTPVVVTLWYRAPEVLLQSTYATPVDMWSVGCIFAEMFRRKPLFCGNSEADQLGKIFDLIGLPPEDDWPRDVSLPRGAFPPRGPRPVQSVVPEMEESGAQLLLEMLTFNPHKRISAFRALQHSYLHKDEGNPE
CDK4, sequence (P24385 whole entry partner, species assumed): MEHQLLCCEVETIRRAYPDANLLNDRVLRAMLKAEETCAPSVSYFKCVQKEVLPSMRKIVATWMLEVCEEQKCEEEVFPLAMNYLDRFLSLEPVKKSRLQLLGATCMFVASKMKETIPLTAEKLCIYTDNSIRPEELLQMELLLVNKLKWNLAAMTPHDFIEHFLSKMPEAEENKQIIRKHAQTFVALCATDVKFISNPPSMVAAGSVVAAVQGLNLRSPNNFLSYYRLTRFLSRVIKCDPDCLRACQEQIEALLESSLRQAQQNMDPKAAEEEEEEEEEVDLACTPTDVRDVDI

As for `CC(C)n1nc(-c2ccc(OCCN3CCN(C)CC3)cc2)nc2c(=O)n(C)c(=O)nc1-2` [Compound 97], the IC50 is above 3000 nM on AKT3 [1] (setting [3]); 164 nM at CDK4 (setting [4]); 198 nM on AKT3 [2] (setting [5]); 292 nM in the data set on A2780 cells (setting [6]); 42.7 nM on CDC25B (setting [7]). Besides, the solubility in “physchem” was above 1800 µM.
Turning to `CC(C)n1nc(-c2ccc(CNC3CCN(S(=O)(=O)N(C)C)CC3)cc2)nc2c(=O)n(C)c(=O)nc1-2` [Compound 99], the IC50 on AKT3 [1] (setting [3]) was 432 nM; at CDK4 (setting [4]), 141 nM; at AKT3 [2] (setting [5]), 170 nM; in the data set with A2780 cells (setting [6]), 120 nM; on CDC25B (setting [7]) it was 30.3 nM. The compound also came in with a solubility in the data set “physchem” above 1800 µM.
For the compound `Cn1c(=O)nc2n(C3CCCC3)nc(-c3ccc(CN4CCNCC4)cc3)nc-2c1=O` [Compound 153], the IC50 on AKT3 [1] (setting [3]) is 495 nM; at CDK4 (setting [4]), 369 nM; at AKT3 [2] (setting [5]), 335 nM; with A2780 cells (setting [6]) it was 181 nM; at CDC25B (setting [7]), 46 nM. Also, the solubility in the data set “physchem” was above 1800 µM.
For the compound `Cn1c(=O)nc2n(C3CCNCC3)nc(-c3ccc(CCCN4CCCCC4)cc3)nc-2c1=O` [Compound 155], the IC50 on AKT3 [1] (setting [8]) was 469 nM; against CDK4 (setting [9]), 72.6 nM; on AKT3 [2] (setting [10]), 232 nM; with A2780 cells (setting [6]) it was 177 nM; at CDC25B (setting [11]), 36.9 nM.
As to `COc1cc(-c2nc3c(=O)n(C)c(=O)nc-3n(C(C)C)n2)cc(OC)c1OS(=O)(=O)N(C)C` [Compound 86], the IC50 at AKT3 [1] (setting [3]) was above 1000 nM; on CDK4 (setting [4]) it was 272 nM; on AKT3 [2] (setting [5]) it was 273 nM; in the data set with A2780 cells (setting [6]) it was 264 nM; at CDC25B (setting [7]), 38.6 nM. This compound also showed a solubility in the data set “physchem” of 160 to 1800 µM (≈ 76.9 to 865 µg/mL).
On to `CC(C)n1nc(-c2ccc(OCCCN3CCCCC3)cc2)nc2c(=O)n(C)c(=O)nc1-2` [Compound 90], for which the IC50 is 181 nM on AKT3 [2] (setting [5]) and 27.9 nM on CDC25B (setting [7]). Also, in the data set with A2780 cells (A2780 cells, 3 days), the “Cytotox survival of A2780 cells after 3 days - pIC50 values” was 6.842.
With `COc1cc(-c2nc3c(=O)n(C)c(=O)nc-3n(C(C)C)n2)cc(OC)c1OCCN1CCCCC1` [Compound 77], the IC50 on AKT3 [1] (setting [3]) was above 1000 nM; at CDK4 (setting [4]), 293 nM; on AKT3 [2] (setting [5]), 240 nM; on CDC25B (setting [7]), 43.3 nM. In addition, the “Cytotox survival of A2780 cells after 3 days - pIC50 values” in the data set on A2780 cells (A2780 cells, 3 days) is on record as 6.785.
`CC(C)n1nc(-c2ccc(OCCN3CCNCC3)cc2)nc2c(=O)n(C)c(=O)nc1-2` [Compound 82]: the IC50 at AKT3 [1] (setting [3]) was 216 nM; at CDK4 (setting [4]) it was 300 nM; on AKT3 [2] (setting [5]), 339 nM; with A2780 cells (setting [6]), 375 nM; on CDC25B (setting [7]) it was 50.2 nM. For the same compound, the solubility in “physchem” was above 1800 µM.
For `CC(C)n1nc(-c2ccc(OS(=O)(=O)N(C)C)cc2)nc2c(=O)n(C)c(=O)nc1-2` [Compound 87], the IC50 is above 1000 nM on AKT3 [1] (setting [8]); 274 nM against CDK4 (setting [9]); 410 nM at AKT3 [2] (setting [10]); 198 nM with A2780 cells (setting [6]); 48.3 nM at CDC25B (setting [11]). Further, the solubility in the data set “physchem” is 160 to 1800 µM (≈ 67.3 to 757 µg/mL).
With `COc1cc(-c2nc3c(=O)n(C)c(=O)nc-3n(C(C)C)n2)cc(OC)c1OCCN1CCN(S(N)(=O)=O)CC1` [Compound 96], the IC50 was above 3000 nM at AKT3 [1] (setting [3]); 205 nM at CDK4 (setting [4]); 175 nM at AKT3 [2] (setting [5]); 492 nM in the data set with A2780 cells (setting [6]); 45 nM at CDC25B (setting [7]). In “physchem”, this compound displayed a solubility above 1800 µM.
In the case of `CC(C)n1nc(-c2ccc(OCCN3CCNCC3)c(Cl)c2)nc2c(=O)n(C)c(=O)nc1-2` [Compound 104], the IC50 was 726 nM on AKT3 [1] (setting [3]); 128 nM at CDK4 (setting [4]); 121 nM on AKT3 [2] (setting [5]); 214 nM in the data set with A2780 cells (setting [6]); 30.2 nM on CDC25B (setting [7]). The compound further gave a solubility in the data set “physchem” above 1800 µM.
As to `CC(C)n1nc(-c2ccc(OCCNS(=O)(=O)N(C)C)cc2)nc2c(=O)n(C)c(=O)nc1-2` [Compound 109], the IC50 at AKT3 [1] (setting [3]) was above 3020 nM; at CDK4 (setting [4]), 166 nM; on AKT3 [2] (setting [5]), 155 nM; in the data set with A2780 cells (setting [6]) it was 594 nM. The compound further displayed a solubility in “physchem” of 160 to 1800 µM (≈ 74.2 to 834 µg/mL).
With `CC(C)n1nc(-c2ccc(CN(C)CCO)cc2)nc2c(=O)n(C)c(=O)nc1-2` [Compound 111], the IC50 was 791 nM at AKT3 [1] (setting [8]); 126 nM at CDK4 (setting [9]); 161 nM at AKT3 [2] (setting [10]); 157 nM in the data set on A2780 cells (setting [12]); 31 nM at CDC25B (setting [11]). The same compound returned a solubility in “physchem” above 1800 µM.
With `COCCNCc1ccc(-c2nc3c(=O)n(C)c(=O)nc-3n(C(C)C)n2)cc1` [Compound 100], the IC50 on AKT3 [1] (setting [8]) is 407 nM; against CDK4 (setting [9]), 157 nM; against AKT3 [2] (setting [10]), 178 nM; with A2780 cells (setting [12]), 246 nM; on CDC25B (setting [11]) it was 49.9 nM. Besides, in the data set “physchem”, the solubility is above 1800 µM.
`CC(C)n1nc(-c2ccc(OCCN)cc2)nc2c(=O)n(C)c(=O)nc1-2` [Compound 101]: the IC50 at AKT3 [1] (setting [8]) is 513 nM; against CDK4 (setting [9]), 230 nM; against AKT3 [2] (setting [10]), 232 nM; in the data set on A2780 cells (setting [12]), 579 nM; at CDC25B (setting [11]), 53.5 nM. This compound gave a solubility in the data set “physchem” above 1800 µM.
In the case of `CC(C)n1nc(-c2ccc(CNC3CCNCC3)cc2)nc2c(=O)n(C)c(=O)nc1-2` [Compound 98], the IC50 on AKT3 [1] (setting [3]) was above 3000 nM; on CDK4 (setting [4]), 200 nM; on AKT3 [2] (setting [5]), 194 nM; with A2780 cells (setting [6]), 488 nM; at CDC25B (setting [7]), 58.5 nM. The solubility in “physchem” was above 1800 µM.
With `COc1cc(-c2nc3c(=O)n(C)c(=O)nc-3n(C(C)C)n2)cc(OC)c1OCCN(C)C1CCNCC1` [Compound 105], the IC50 is above 3020 nM at AKT3 [1] (setting [3]); 153 nM on CDK4 (setting [4]); 138 nM at AKT3 [2] (setting [5]); below 3010 nM with A2780 cells (setting [6]); 35.6 nM on CDC25B (setting [7]). Moreover, in “physchem”, the solubility is above 1800 µM.
As to `COc1cc(-c2nc3c(=O)n(C)c(=O)nc-3n(C(C)C)n2)ccc1OCCN1CCCCC1` [Compound 78], the IC50 on AKT3 [1] (setting [3]) was 301 nM; at CDK4 (setting [4]) it was 513 nM; on AKT3 [2] (setting [5]) it was 262 nM; in the data set with A2780 cells (setting [6]) it was 269 nM; on CDC25B (setting [7]) it was 44 nM. Further, in “physchem”, the solubility is above 1800 µM.
Take `CC(C)n1nc(-c2ccc(CN3CCN(S(N)(=O)=O)CC3)cc2)nc2c(=O)n(C)c(=O)nc1-2` [Compound 102]: the IC50 at AKT3 [1] (setting [8]) is above 3020 nM; on CDK4 (setting [9]), 79.8 nM; against AKT3 [2] (setting [10]), 172 nM; in the data set with A2780 cells (setting [12]) it was 912 nM; at CDC25B (setting [11]) it was 36.5 nM. Moreover, in “physchem”, the solubility was above 1800 µM.
As to `CC(C)n1nc(-c2ccc(OCCN3CCOCC3)c(Cl)c2)nc2c(=O)n(C)c(=O)nc1-2` [Compound 74], the IC50 on CDK4 (setting [9]) is 161 nM; on AKT3 [2] (setting [10]), 111 nM; in the data set with A2780 cells (setting [12]), 190 nM. In “physchem”, this compound came in with a solubility of 160 to 1800 µM (≈ 73.7 to 830 µg/mL).
For the compound `COc1cc(-c2nc3c(=O)n(C)c(=O)nc-3n(C3CCNCC3)n2)ccc1OCCN1CCCCC1` [Compound 152], the IC50 on AKT3 [1] (setting [3]) was at least 3000 nM; at CDK4 (setting [4]) it was 187 nM; on AKT3 [2] (setting [5]), 275 nM; with A2780 cells (setting [6]), 630 nM; at CDC25B (setting [7]) it was 25.4 nM.
As to `CC(C)n1nc(-c2ccc(OCCN3CCCCC3)cc2)nc2c(=O)n(C)c(=O)nc1-2` [Compound 94], the IC50 at CDK4 (setting [4]) is 173 nM; at AKT3 [2] (setting [5]) it was 165 nM; in the data set with A2780 cells (setting [6]) it was 163 nM; at CDC25B (setting [7]), 36.4 nM. In “physchem”, this compound came in with a solubility above 1800 µM.
